What follows are compounds tested on Lewis strain laboratory rats (assay: In vivo alleviation of inflammation: polyarthritis (adjuvant, Mycobacterium butyricum) in rats, inhibition of paw volume increase). Conditions: Rattus norvegicus, po, rat; read-out: ED50 (effective dose to obtain a 50% inhibition of inflammation).
Experimental: Polyarthritis was induced in Lewis strain laboratory rats (weight=about 200 grams) by injection of a suspension of Mycobacterium butyricum in mineral oil into the subplantar tissue of the mammal's hind paws. On day 10 after the injection, the rats were assigned to groups, and paw volumes and body weights were recorded. Paw volumes of the contralateral, uninjected hind paw were determined by mercury plethylsmography. Per oral (p.o.) dosing began and continued for five consecutive days thereafter. On day 14 after the initial injection, approximately four hours after the final dose was administered, paw volumes and body weights were recorded and quantitated.
Anti-inflammatory activity of the substituted pyrazole compounds is expressed as the percent inhibition of paw volume increase.

Q: `COc1ccc(-n2nc(CCC(=O)N(C)O)cc2-c2ccc(C(F)(F)F)cc2)cc1` [Compound 79] was tested. Which ED50 did it give?
A: 3.2 mg/kg

Q: With `COc1ccc(-c2cc(CCC(=O)N(C)O)nn2-c2ccc(Cl)cc2)cc1` [Compound 112] as the compound, how does the ED50 read?
A: 16.3 mg/kg

Same assay, conditions: po, 336 h; 10 mpk p.o., rat; read-out: % INH. p.o. (percentage inhibition of pad swelling)

Q: For `COc1ccccc1-n1nc(CCC(=O)O)cc1-c1ccc(Cl)cc1` [Compound 103], which inhibition in vivo at 10 mg/kg is on record?
A: 55%

Q: With `COc1ccc(-n2nc(CCC(=O)O)cc2-c2ccc(C)cc2)cc1` [Compound 105] as the compound, how does the inhibition in vivo at 10 mg/kg read?
A: 87%

Q: How did the inhibition in vivo at 10 mg/kg turn out when `COc1ccc(-n2nc(CCC(=O)O)cc2-c2cccc(C)c2)cc1` [Compound 106] was run?
A: 11%

Q: With `COc1ccc(-n2nc(CCC(=O)O)cc2-c2ccc(C)c(C)c2)cc1` [Compound 107] as the compound, how does the inhibition in vivo at 10 mg/kg read?
A: 30%

Q: How did the inhibition in vivo at 10 mg/kg turn out when `COc1ccc(-n2nc(CCC(=O)O)cc2-c2ccccc2C)cc1` [Compound 109] was run?
A: 1%

Q: `CCc1ccc(-c2cc(CCC(=O)O)nn2-c2ccc(OC)cc2)cc1` [Compound 110] was tested. Which inhibition in vivo at 10 mg/kg did it give?
A: 51%

Same assay, conditions: po, 336 h; 15 mpk p.o., rat; read-out: % INH. p.o. (percentage inhibition of pad swelling)

Q: `CCOc1ccc(-n2nc(CCC(=O)N(C)O)cc2-c2ccc(Cl)cc2)cc1` [Compound 76] was tested. Which inhibition in vivo at 15 mg/kg did it give?
A: 43%

Q: How did the inhibition in vivo at 15 mg/kg turn out when `COc1ccc(-n2nc(CCC(=O)N(O)C(C)C)cc2-c2ccc(Cl)cc2)cc1` [Compound 81, 3-[5-(4-chlorophenyl)-1-(4-methoxyphenyl)-3-pyrazolyl]-N-hydroxy-N-isopropylpropanamide] was run?
A: 50%

Q: How did the inhibition in vivo at 15 mg/kg turn out when `COc1ccc(-n2nc(CCC(=O)N(O)C3CCCCC3)cc2-c2ccc(Cl)cc2)cc1` [Compound 82, 3-[5-(4-chlorophenyl)-1-(4-methoxyphenyl)-3-pyrazolyl]-N-cyclohexyl-N-hydroxypropanamide] was run?
A: 54%

Q: For `CCN(O)C(=O)CCc1cc(-c2ccc(Cl)cc2)n(-c2ccc(OC)cc2)n1` [Compound 83, 3-[5-(4-chlorophenyl)-1-(4-methoxyphenyl)-3-pyrazolyl]-N-ethyl-N-hydroxypropanamide], which inhibition in vivo at 15 mg/kg is on record?
A: 42%

Q: Which inhibition in vivo at 15 mg/kg does the source give for `CCOC(=O)CNC(=O)CCc1cc(-c2ccc(Cl)cc2)n(-c2ccc(OC)cc2)n1` [Compound 87] here?
A: 22%

Q: Which inhibition in vivo at 15 mg/kg does the source give for `COc1ccc(-n2nc(CCC(=O)NCC(=O)NO)cc2-c2ccc(Cl)cc2)cc1` [Compound 88] here?
A: 36%

Q: How did the inhibition in vivo at 15 mg/kg turn out when `COc1ccc(-n2nc(CCC(=O)NCC(=O)N(C)O)cc2-c2ccc(Cl)cc2)cc1` [Compound 89] was run?
A: 57%

Q: With `COc1ccc(-n2nc(CCC(=O)Nc3nnn[nH]3)cc2-c2ccc(Cl)cc2)cc1` [Compound 90] as the compound, how does the inhibition in vivo at 15 mg/kg read?
A: 32%

Q: For `COc1ccc(-n2nc(CCCOCC(=O)O)cc2-c2ccc(Cl)cc2)cc1` [Compound 93], which inhibition in vivo at 15 mg/kg is on record?
A: 17%

Q: With `CCOC(=O)C(CS)NC(=O)CCc1cc(-c2ccc(Cl)cc2)n(-c2ccc(OC)cc2)n1` (stereo not drawn) [Compound 100] as the compound, how does the inhibition in vivo at 15 mg/kg read?
A: 58%

Q: `CCOC(=O)C(CSC)NC(=O)CCc1cc(-c2ccc(Cl)cc2)n(-c2ccc(OC)cc2)n1` (stereo not drawn) [Compound 101] was tested. Which inhibition in vivo at 15 mg/kg did it give?
A: 57%

Q: With `COc1ccccc1-n1nc(CCC(=O)N(C)O)cc1-c1ccc(Cl)cc1` [Compound 104] as the compound, how does the inhibition in vivo at 15 mg/kg read?
A: 39%

Q: For `COc1ccc(-n2nc(CCC(=O)N(C)O)cc2-c2ccc(C)cc2)cc1` [Compound 111], which inhibition in vivo at 15 mg/kg is on record?
A: 75%

Same assay, conditions: po, 336 h; 30 mpk p.o., rat; read-out: % INH. p.o. (percentage inhibition of pad swelling)

Q: With `COc1ccc(-n2nc(CCCN)cc2-c2ccc(Cl)cc2)cc1` [Compound 96, 3-[5-(4-Chlorophenyl)-1-(4-methoxyphenyl)-3-pyrazolyl]propylamine] as the compound, how does the inhibition in vivo at 30 mg/kg read?
A: 56%

Q: With `CCN(CC)OC(=O)CCc1cc(-c2ccc(Cl)cc2)n(-c2ccc(OC)cc2)n1` [Compound 102] as the compound, how does the inhibition in vivo at 30 mg/kg read?
A: 87%

Same assay, conditions: po, 336 h; 40 mpk p.o., rat; read-out: % INH. p.o. (percentage inhibition of pad swelling)

Q: How did the inhibition in vivo at 40 mg/kg turn out when `COc1ccc(-n2nc(CCC(=O)O)cc2-c2ccc(Cl)cc2)cc1OC` [Compound 74] was run?
A: 17%

Q: `CCOC(=O)CCc1cc(-c2ccc(Cl)cc2)n(-c2ccc(OCC)cc2)n1` [Compound 75] was tested. Which inhibition in vivo at 40 mg/kg did it give?
A: 73%

Q: With `COc1ccc(-n2nc(CCC(=O)N(O)c3ccccc3)cc2-c2ccc(Cl)cc2)cc1` [Compound 84, 3-[5-(4-chlorophenyl)-1-(4-methoxyphenyl)-3-pyrazolyl]-N-hydroxy-N-phenylpropanamide] as the compound, how does the inhibition in vivo at 40 mg/kg read?
A: 27%

Q: With `COc1ccc(-n2nc(CCC(=O)NC3=NCCS3)cc2-c2ccc(Cl)cc2)cc1` [Compound 85] as the compound, how does the inhibition in vivo at 40 mg/kg read?
A: 40%

— patent US5164381A, “Pharmacologically active 1,5-diaryl-3-substituted pyrazoles and method for synthesizing the same” (Ortho Pharmaceutical Corporation, priority 1991, dated 1992)
